Reference: PMC9940855, “First-in-Class Dual Hybrid Carbonic Anhydrase Inhibitors and Transient Receptor Potential Vanilloid 1 Agonists Revert Oxaliplatin-Induced Neuropathy” (Journal of Medicinal Chemistry, 2023)
“And” between values parts separate entries of the source, which are not always exact repeats. Equal values may be shown once.

Assays:
[1] = target: hCA VII (Homo sapiens, UniProt P43166); conditions: read-out: KI hCA VII; stopped-flow CO2 hydrase assay; mean from three different assays, errors ±5–10%
hCA VII, sequence (P43166 whole entry): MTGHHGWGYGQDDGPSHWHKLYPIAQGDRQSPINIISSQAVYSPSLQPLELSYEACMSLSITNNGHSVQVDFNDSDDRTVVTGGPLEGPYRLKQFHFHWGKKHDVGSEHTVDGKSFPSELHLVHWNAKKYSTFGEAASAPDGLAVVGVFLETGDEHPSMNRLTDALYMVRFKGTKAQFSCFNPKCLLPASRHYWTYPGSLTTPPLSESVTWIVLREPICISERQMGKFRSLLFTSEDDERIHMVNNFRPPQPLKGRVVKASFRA

[2] = target: hCA IV (Homo sapiens, UniProt P22748); conditions: read-out: KI hCA IV; stopped-flow CO2 hydrase assay; mean from three different assays, errors ±5–10%
hCA IV, sequence (P22748 19-312): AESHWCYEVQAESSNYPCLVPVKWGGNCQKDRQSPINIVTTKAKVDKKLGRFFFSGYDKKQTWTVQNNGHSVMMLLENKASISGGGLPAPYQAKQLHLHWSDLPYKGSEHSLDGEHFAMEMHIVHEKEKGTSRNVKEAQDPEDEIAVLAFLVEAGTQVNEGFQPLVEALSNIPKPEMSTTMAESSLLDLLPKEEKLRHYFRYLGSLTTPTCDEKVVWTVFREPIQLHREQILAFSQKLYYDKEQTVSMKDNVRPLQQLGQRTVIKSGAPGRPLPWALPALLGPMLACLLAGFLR

[3] = target: hCA XII (Homo sapiens, UniProt O43570); conditions: read-out: KI hCA XII; stopped-flow CO2 hydrase assay; mean from three different assays, errors ±5–10%
hCA XII, sequence (O43570 25-354): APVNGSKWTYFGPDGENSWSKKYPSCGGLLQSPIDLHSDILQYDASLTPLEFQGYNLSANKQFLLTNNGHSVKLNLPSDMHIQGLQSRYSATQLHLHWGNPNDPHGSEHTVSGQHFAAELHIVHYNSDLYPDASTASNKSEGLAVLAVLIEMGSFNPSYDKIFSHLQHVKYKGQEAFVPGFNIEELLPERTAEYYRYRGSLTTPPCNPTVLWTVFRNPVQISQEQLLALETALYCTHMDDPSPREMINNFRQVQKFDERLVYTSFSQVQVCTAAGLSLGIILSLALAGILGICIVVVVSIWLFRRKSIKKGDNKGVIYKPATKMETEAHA

[4] = target: T1, hCA IX (Homo sapiens, UniProt Q16790); type: biochemical
T1 construct: made in house

[5] = target: hCA II (Homo sapiens, UniProt P00918); conditions: read-out: KI hCA II; stopped-flow CO2 hydrase assay; mean from three different assays, errors ±5–10%
[6] = target: T2, TRPV1 receptor (Homo sapiens, UniProt Q8NER1); assay: TRPV1 assay, Fluo-4NW fluorescence in SH-SY5Y-TRPV1 cells; type: cell-based; conditions: read-out: EC50 on TRPV1 receptor activity (agonism)
T2 construct: expressed in transfected cells
T2 sequence (Q8NER1 whole entry): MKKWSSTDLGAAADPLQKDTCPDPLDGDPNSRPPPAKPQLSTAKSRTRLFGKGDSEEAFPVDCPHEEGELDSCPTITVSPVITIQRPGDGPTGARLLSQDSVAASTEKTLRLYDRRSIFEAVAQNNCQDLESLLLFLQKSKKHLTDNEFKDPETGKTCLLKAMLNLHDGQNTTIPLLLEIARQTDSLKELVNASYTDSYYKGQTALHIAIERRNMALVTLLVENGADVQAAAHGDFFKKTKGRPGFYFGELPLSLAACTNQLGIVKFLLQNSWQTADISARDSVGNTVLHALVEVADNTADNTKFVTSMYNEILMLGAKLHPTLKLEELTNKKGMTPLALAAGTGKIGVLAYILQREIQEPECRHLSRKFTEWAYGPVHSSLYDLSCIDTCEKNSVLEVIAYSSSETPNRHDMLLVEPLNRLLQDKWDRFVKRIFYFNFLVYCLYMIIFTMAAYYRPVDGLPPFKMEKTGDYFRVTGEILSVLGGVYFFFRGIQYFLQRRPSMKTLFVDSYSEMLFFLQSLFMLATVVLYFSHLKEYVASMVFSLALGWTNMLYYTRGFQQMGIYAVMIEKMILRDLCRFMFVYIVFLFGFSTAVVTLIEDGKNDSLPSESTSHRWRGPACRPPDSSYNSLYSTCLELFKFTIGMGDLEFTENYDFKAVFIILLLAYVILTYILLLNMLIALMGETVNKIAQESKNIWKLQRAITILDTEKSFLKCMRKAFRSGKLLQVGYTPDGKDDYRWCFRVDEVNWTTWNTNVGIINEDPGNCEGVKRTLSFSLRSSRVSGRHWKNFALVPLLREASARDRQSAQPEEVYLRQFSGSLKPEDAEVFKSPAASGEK
Experimental: SH-SY5Y-TRPV1 cells (kindly provided by Johanna Lilja and Anna Forsby (University of Stockholm, Stockholm, Sweden))[40] were cultured in 96 wells. Upon 90% confluence had been reached, the cells were loaded with 5 μM Fluo-4NW for 1 h at 37 °C. […] Briefly, after measuring the basal fluorescence of the plate (four cycles), testing compounds were added to the plate, and the fluorescence was measured for additional 10 cycles; thereafter, 10 μM capsaicin was added with a microinjector and the fluorescence was monitored for an additional 10 cycles.

[7] = target: hCA I (Homo sapiens, UniProt P00915); conditions: read-out: KI hCA I; stopped-flow CO2 hydrase assay; mean from three different assays, errors ±5–10%
hCA I, sequence (P00915 whole entry): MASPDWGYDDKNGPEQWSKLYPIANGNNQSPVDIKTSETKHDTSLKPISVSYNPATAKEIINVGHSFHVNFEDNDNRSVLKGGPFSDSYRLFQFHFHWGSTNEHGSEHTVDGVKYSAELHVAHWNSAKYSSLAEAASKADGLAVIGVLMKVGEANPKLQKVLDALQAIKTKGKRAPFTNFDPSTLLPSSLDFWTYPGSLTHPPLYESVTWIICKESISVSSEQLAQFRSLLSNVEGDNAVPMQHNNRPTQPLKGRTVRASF

Row | Compound | Ki [1] | Ki [2] | Ki [3] | Ki [4] | Ki [5] | EC50 [6] | Ki [7]
1 | NS(=O)(=O)c1ccc(N2CC[C@@H](NC(=O)Nc3ccc(Cl)c(C(F)(F)F)c3)C2)nc1 [10a, (R)-6-(3-(3-(4-Chloro-3-(trifluoromethyl)phenyl)ureido)pyrrolidin-1-yl)pyridine-3-sulfonamide] | 78.6 nM | 4020 nM |  | 737 nM |  | 74500 nM | 788 nM
2 | NS(=O)(=O)c1ccc(N2CC[C@@H](NC(=O)Nc3ccccc3F)C2)nc1 [11a, (R)-6-(3-(3-(2-Fluorophenyl)ureido)pyrrolidin-1-yl)pyridine-3-sulfonamide] | 187 nM |  | 73 nM |  |  | > 100000 nM | 37 nM
3 | NS(=O)(=O)c1ccc(N2CC[C@@H](NC(=O)Nc3ccccc3Cl)C2)nc1 [12a, (R)-6-(3-(3-(2-Chlorophenyl)ureido)pyrrolidin-1-yl)pyridine-3-sulfonamide] | 73.5 nM | 3000 nM | 83.6 nM | 316 nM |  | 11900 nM | 82.5 nM
4 | NS(=O)(=O)c1ccc(N2CC[C@@H](NC(=O)Nc3ccc(Oc4ccccc4)cc3)C2)nc1 [13a, (R)-6-(3-(3-(4-Phenoxyphenyl)ureido)pyrrolidin-1-yl)pyridine-3-sulfonamide] | 76.9 nM |  | 407 nM | 245 nM |  | > 100000 nM | 
5 | NS(=O)(=O)c1ccc(N2CC[C@@H](NC(=O)Nc3ccc(Cl)c(Cl)c3)C2)nc1 [14a, (R)-6-(3-(3-(3,4-Dichlorophenyl)ureido)pyrrolidin-1-yl)pyridine-3-sulfonamide] | 26.5 nM | 4900 nM | 7.2 nM |  | 82.2 nM | > 100000 nM | 
6 | NS(=O)(=O)c1ccc(N2CC[C@@H](NC(=O)Nc3ccc([N+](=O)[O-])cc3)C2)nc1 [19a, (R)-6-(3-(3-(4-Nitrophenyl)ureido)pyrrolidin-1-yl)pyridine-3-sulfonamide] | 56.1 nM |  | 57.4 nM | 145 nM | 437 nM | > 100000 nM | 252 nM
7 | NS(=O)(=O)c1ccc(N2CC[C@@H](NC(=O)Nc3c(F)cc(F)cc3Br)C2)nc1 [22a, (R)-6-(3-(3-(2-Bromo-4,6-difluorophenyl)ureido)pyrrolidin-1-yl)pyridine-3-sulfonamide] | 41.1 nM | 4880 nM | 8.1 nM |  | 446 nM | > 100000 nM | 
8 | NS(=O)(=O)c1cccc(NC(=S)N[C@@H]2CCN(c3ccccn3)C2)c1 [36a, (R)-3-(3-(1-(Pyridin-2-yl)pyrrolidin-3-yl)thioureido)benzenesulfonamide] | 55.4 nM | 320 nM |  |  | 9.6 nM | > 100000 nM | 85.1 nM
9 | NS(=O)(=O)c1ccc(NC(=S)N[C@@H]2CCN(c3ccc(C(F)(F)F)cn3)C2)cc1 [39a, (R)-4-(3-(1-(5-(Trifluoromethyl)pyridin-2-yl)pyrrolidin-3-yl)thioureido)benzenesulfonamide] | 73.3 nM | 4970 nM | 62.5 nM | 355 nM |  | 12500 nM and 12400 nM | 
10 | NS(=O)(=O)c1ccc(NC(=S)N[C@H]2CCN(c3ccc(C(F)(F)F)cn3)C2)cc1 [39b, (S)-4-(3-(1-(5-(Trifluoromethyl)pyridin-2-yl)pyrrolidin-3-yl)thioureido)benzenesulfonamide] | 15.7 nM | 9720 nM | 9.4 nM | 6 nM |  | 12500 nM | 
11 | NS(=O)(=O)c1cccc(NC(=S)N[C@@H]2CCN(c3ccc(C(F)(F)F)cn3)C2)c1 [40a, (R)-3-(3-(1-(5-(Trifluoromethyl)pyridin-2-yl)pyrrolidin-3-yl)thioureido)benzenesulfonamide] | 55.1 nM |  |  | 36.4 nM |  | 21900 nM | 490 nM
12 | NS(=O)(=O)c1cccc(NC(=O)N[C@@H]2CCN(c3cccc([N+](=O)[O-])n3)C2)c1 [44a, (R)-3-(3-(1-(6-Nitropyridin-2-yl)pyrrolidin-3-yl)ureido)benzenesulfonamide] | 74.8 nM | 2100 nM | 37.9 nM | 971 nM | 6.1 nM |  | 76 nM
13 | NS(=O)(=O)c1cccc(NC(=O)N[C@@H]2CCN(c3ccc(C(F)(F)F)cn3)C2)c1 [46a, (R)-3-(3-(1-(5-(Trifluoromethyl)pyridin-2-yl)pyrrolidin-3-yl)ureido)benzenesulfonamide] |  |  | 6.6 nM |  | 8.4 nM | 37300 nM | 199 nM

The next lines start with the values.

Row | Ki [1] | Ki [2] | Ki [3] | Ki [4] | Ki [5] | EC50 [6] | Ki [7] | Compound
14 | 6.6 nM | 2660 nM | 59.3 nM | 32.2 nM | 15.1 nM | > 100000 nM |  | NS(=O)(=O)c1ccc(N2CC[C@@H](NC(=O)Nc3ccc(F)cc3)C2)nc1 [7a, (R)-6-(3-(3-(4-Fluorophenyl)ureido)pyrrolidin-1-yl)pyridine-3-sulfonamide]
15 | 9.7 nM | 774 nM | 9 nM | 9.6 nM |  | > 100000 nM | 48 nM | NS(=O)(=O)c1ccc(NC(=S)N[C@@H]2CCN(c3ccccn3)C2)cc1 [35a, (R)-4-(3-(1-(Pyridin-2-yl)pyrrolidin-3-yl)thioureido)benzenesulfonamide]
16 | 9.5 nM | 3510 nM | 31.6 nM | 29.1 nM | 8 nM |  | 58.3 nM | NS(=O)(=O)c1ccc(NC(=O)N[C@@H]2CCN(c3ccccn3)C2)cc1 [41a, (R)-4-(3-(1-(Pyridin-2-yl)pyrrolidin-3-yl)ureido)benzenesulfonamide]
17 | 8.1 nM | 2480 nM | 8.2 nM | 126 nM | 1.7 nM |  | 9.6 nM | NS(=O)(=O)c1cccc(NC(=O)N[C@@H]2CCN(c3ccccn3)C2)c1 [42a, (R)-3-(3-(1-(Pyridin-2-yl)pyrrolidin-3-yl)ureido)benzenesulfonamide]
18 | 8.7 nM | 8230 nM | 9.1 nM | 26.9 nM | 14.9 nM |  | 76.2 nM | NS(=O)(=O)c1ccc(NC(=O)N[C@H]2CCN(c3cccc([N+](=O)[O-])n3)C2)cc1 [43b, (S)-4-(3-(1-(6-Nitropyridin-2-yl)pyrrolidin-3-yl)ureido)benzenesulfonamide]
19 | 17.7 nM | 9550 nM | 48.4 nM | 193 nM | 6.6 nM |  | 87.2 nM | NS(=O)(=O)c1cccc(NC(=O)N[C@H]2CCN(c3cccc([N+](=O)[O-])n3)C2)c1 [44b, (S)-3-(3-(1-(6-Nitropyridin-2-yl)pyrrolidin-3-yl)ureido)benzenesulfonamide]
20 | 8.2 nM | 3900 nM | 6.3 nM | 36.7 nM | 27.4 nM |  | 72.4 nM | NS(=O)(=O)c1ccc(NC(=O)N[C@@H]2CCN(c3ccc(C(F)(F)F)cn3)C2)cc1 [45a, (R)-4-(3-(1-(5-(Trifluoromethyl)pyridin-2-yl)pyrrolidin-3-yl)ureido)benzenesulfonamide]
21 | 12.8 nM | 9710 nM | 8.6 nM | 54 nM | 46.3 nM |  | 68.6 nM | NS(=O)(=O)c1ccc(NC(=O)N[C@H]2CCN(c3ccc(C(F)(F)F)cn3)C2)cc1 [45b, (S)-4-(3-(1-(5-(Trifluoromethyl)pyridin-2-yl)pyrrolidin-3-yl)ureido)benzenesulfonamide]
